# Measurements from patent publication US20170190671A1, “BIS(ARYL)CATECHOL DERIVATIVES AS HERBICIDES” (E I DU PONT DE NEMOURS AND COMPANY, priority 2014, published 2017).
# Assays:
# Type in all cases: in vivo
# [1] = system: barnyardgrass (Echinochloa crus-galli); assay: Test C preemergence; settings: Echinochloa crus-galli, pre-emergence, read-out: Plant response rating, Barnyardgrass
# Procedure, shortened: (§1)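 Seeds in loam-sand soil were treated preemergence, and plants at the 1- to 4-leaf stage (2-18 cm) in peat-based medium were sprayed postemergence, with test chemicals in a non-phytotoxic solvent containing surfactant. After 13-15 days in a greenhouse, response was rated visually against controls from 0 (no effect) to 100 (complete control).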
# [2] = system: galium (catchweed bedstraw, Galium aparine); assay: Test C preemergence; settings: Galium, pre-emergence, 336 h, scale 0 to 100, read-out: Plant response rating, Galium
# Procedure, shortened: as §1
# [3] = system: johnsongrass (Sorghum halepense); assay: Test C preemergence; settings: Sorghum halepense, pre-emergence, 336 h, scale 0 to 100, read-out: Plant response rating, Johnsongrass
# Procedure, shortened: as §1
# [4] = system: lambsquarters (Chenopodium album); assay: Test C postemergence; settings: Chenopodium album, post-emergence, 336 h, Postemergence, scale 0 to 100, read-out: Plant response rating, Lambsquarters
# Procedure, shortened: as §1
# [5] = system: waterhemp (common waterhemp, Amaranthus rudis); assay: Test C postemergence; settings: Amaranthus tuberculatus, post-emergence, Postemergence, scale 0 to 100, read-out: Plant response rating, Waterhemp
# Procedure, shortened: as §1
# [6] = system: yellow nutsedge (Cyperus esculentus); assay: Test C postemergence; settings: Cyperus, post-emergence, 336 h, Postemergence, scale 0 to 100, read-out: Plant response rating, Nutsedge, Yellow
# Procedure, shortened: as §1
# [7] = system: chickweed (common chickweed, Stellaria media); assay: Test C postemergence; settings: Stellaria media, post-emergence, Postemergence, scale 0 to 100, read-out: Plant response rating, Chickweed
# Procedure, shortened: as §1
# [8] = system: blackgrass (Alopecurus myosuroides); assay: Test C postemergence; settings: Alopecurus myosuroides, post-emergence, 336 h, Postemergence, scale 0 to 100, read-out: Plant response rating, Blackgrass
# Procedure, shortened: as §1
# soybean (Glycine max) = assay: Test C postemergence; settings: Glycine max, post-emergence, Postemergence, scale 0 to 100, read-out: Plant response rating, Soybean
# Procedure, shortened: as §1
# [9] = system: large (Lg) crabgrass (Digitaria sanguinalis); assay: Test C postemergence; settings: Digitaria sanguinalis, post-emergence, 336 h, Postemergence, scale 0 to 100, read-out: Plant response rating, Crabgrass, Large
# Procedure, shortened: as §1
# [10] = system: barnyardgrass (Echinochloa crus-galli); assay: Test C postemergence; settings: Echinochloa crus-galli, post-emergence, Postemergence, scale 0 to 100, read-out: Plant response rating, Barnyardgrass
# Procedure, shortened: as §1
# [11] = system: ragweed (common ragweed, Ambrosia elatior); assay: Test C postemergence; settings: Ambrosia artemisiifolia, post-emergence, 336 h, Postemergence, scale 0 to 100, read-out: Plant response rating, Ragweed
# Procedure, shortened: as §1
# corn (Zea mays) = assay: Test C postemergence; settings: Zea mays, post-emergence, 336 h, Postemergence, scale 0 to 100
# Procedure, shortened: as §1
# [12] = system: velvetleaf (Abutilon theophrasti); assay: Test C postemergence; settings: Abutilon theophrasti, post-emergence, Postemergence, scale 0 to 100, read-out: Plant response rating, Velvetleaf
# Procedure, shortened: as §1
# [13] = system: winter wheat (Triticum aestivum); assay: Test C postemergence; settings: Triticum aestivum, post-emergence, 336 h, Postemergence, scale 0 to 100, read-out: Plant response rating, Wheat
# Procedure, shortened: as §1
# [14] = system: morningglory (Ipomoea coccinea); assay: Test C postemergence; settings: Ipomoea, post-emergence, 336 h, Postemergence, scale 0 to 100, read-out: Plant response rating, Morningglory
# Procedure, shortened: as §1
# [15] = system: galium (catchweed bedstraw, Galium aparine); assay: Test C postemergence; settings: Galium, post-emergence, 336 h, Postemergence, scale 0 to 100, read-out: Plant response rating, Galium
# Procedure, shortened: as §1
# [16] = system: johnsongrass (Sorghum halepense); assay: Test C postemergence; settings: Sorghum halepense, post-emergence, 336 h, Postemergence, scale 0 to 100, read-out: Plant response rating, Johnsongrass
# Procedure, shortened: as §1
# [17] = system: Italian ryegrass (Lolium multiflorum); assay: Test C postemergence; settings: Lolium multiflorum, post-emergence, 336 h, Postemergence, scale 0 to 100, read-out: Plant response rating, Ryegrass, Italian
# Procedure, shortened: as §1
# wild oat (Avena fatua) = assay: Test C postemergence; settings: Avena fatua, post-emergence, Postemergence, scale 0 to 100, read-out: Plant response rating, Oat, Wild
# Procedure, shortened: as §1
# [18] = system: oilseed rape (Brassica napus); assay: Test C postemergence; settings: Brassica napus, post-emergence, Postemergence, scale 0 to 100, read-out: Plant response rating, Oilseed Rape
# Procedure, shortened: as §1
# [19] = system: giant foxtail (Setaria faberii); assay: Test C postemergence; settings: Setaria faberi, post-emergence, 336 h, Postemergence, scale 0 to 100, read-out: Plant response rating, Foxtail, Giant
# Procedure, shortened: as §1
smiles,measurement,setting,value
"Fc1cnc(Oc2c(F)ccc(F)c2Oc2ncc(F)cn2)nc1 [Compound 29, 2,2′-[(3,6-difluoro-1,2-phenylene)bis(oxy)]bis[5-fluoropyrimidine]]",pest or weed control at 31 g/ha,"[1]; 31 g ai/ha, preemergence, scale 0 to 100",75%
same,pest or weed control at 62 g/ha,"[1]; 62 g ai/ha, preemergence, scale 0 to 100",98%
same,pest or weed control at 125 g/ha,"[1]; 125 g ai/ha, preemergence, scale 0 to 100",100%
same,pest or weed control at 16 g/ha,"[1]; Preemergence, 16 g ai/ha, scale 0 to 100 (0 no effect, 100 complete control)",25%
same,pest or weed control at 31 g/ha,"[2]; 31 g ai/ha, preemergence",100%
same,pest or weed control at 62 g/ha,"[2]; 62 g ai/ha, preemergence",100%
same,pest or weed control at 125 g/ha,"[2]; 125 g ai/ha, preemergence",100%
same,pest or weed control at 16 g/ha,"[2]; Preemergence, 16 g ai/ha",95%
same,pest or weed control at 31 g/ha,"[3]; 31 g ai/ha, preemergence",70%
same,pest or weed control at 62 g/ha,"[3]; 62 g ai/ha, preemergence",80%
same,pest or weed control at 125 g/ha,"[3]; 125 g ai/ha, preemergence",85%
same,pest or weed control at 16 g/ha,"[3]; Preemergence, 16 g ai/ha",55%
same,pest or weed control at 16 g/ha,[4]; 16 g ai/ha,75%
same,pest or weed control at 31 g/ha,[4]; 31 g ai/ha,80%
same,pest or weed control at 62 g/ha,[4]; 62 g ai/ha,85%
same,pest or weed control at 125 g/ha,[4]; 125 g ai/ha,85%
same,pest or weed control at 31 g/ha,[5]; 31 g ai/ha,85%
same,pest or weed control at 62 g/ha,[5]; 62 g ai/ha,90%
same,pest or weed control at 125 g/ha,[5]; 125 g ai/ha,95%
same,pest or weed control at 31 g/ha,[6]; 31 g ai/ha,0%
same,pest or weed control at 62 g/ha,[6]; 62 g ai/ha,0%
same,pest or weed control at 125 g/ha,[6]; 125 g ai/ha,0%
same,pest or weed control at 16 g/ha,[7]; 16 g ai/ha,45%
same,pest or weed control at 31 g/ha,[7]; 31 g ai/ha,50%
same,pest or weed control at 62 g/ha,[7]; 62 g ai/ha,50%
same,pest or weed control at 125 g/ha,[7]; 125 g ai/ha,65%
same,pest or weed control at 16 g/ha,[8]; 16 g ai/ha,0%
same,pest or weed control at 31 g/ha,[8]; 31 g ai/ha,0%
same,pest or weed control at 62 g/ha,[8]; 62 g ai/ha,5%
same,pest or weed control at 125 g/ha,[8]; 125 g ai/ha,20%
same,plant injury at 31 g/ha,soybean (Glycine max); 31 g ai/ha,70%
same,plant injury at 62 g/ha,soybean (Glycine max); 62 g ai/ha,75%
same,plant injury at 125 g/ha,soybean (Glycine max); 125 g ai/ha,85%
same,pest or weed control at 16 g/ha,[9]; 16 g ai/ha,0%
same,pest or weed control at 31 g/ha,[9]; 31 g ai/ha,0%
same,pest or weed control at 62 g/ha,[9]; 62 g ai/ha,5%
same,pest or weed control at 125 g/ha,[9]; 125 g ai/ha,10%
same,pest or weed control at 16 g/ha,[10]; 16 g ai/ha,0%
same,pest or weed control at 31 g/ha,[10]; 31 g ai/ha,0%
same,pest or weed control at 62 g/ha,[10]; 62 g ai/ha,5%
same,pest or weed control at 125 g/ha,[10]; 125 g ai/ha,15%
same,pest or weed control at 31 g/ha,[11]; 31 g ai/ha,70%
same,pest or weed control at 62 g/ha,[11]; 62 g ai/ha,75%
same,pest or weed control at 125 g/ha,[11]; 125 g ai/ha,80%
same,"Corn plant response rating (crop injury, 0 = no effect, 100 = complete kill) at 16 g/ha",corn (Zea mays); 16 g ai/ha,0%
same,"Corn plant response rating (crop injury, 0 = no effect, 100 = complete kill) at 31 g/ha",corn (Zea mays); 31 g ai/ha,0%
same,"Corn plant response rating (crop injury, 0 = no effect, 100 = complete kill) at 62 g/ha",corn (Zea mays); 62 g ai/ha,5%
same,"Corn plant response rating (crop injury, 0 = no effect, 100 = complete kill) at 125 g/ha",corn (Zea mays); 125 g ai/ha,5%
same,pest or weed control at 31 g/ha,[12]; 31 g ai/ha,75%
same,pest or weed control at 62 g/ha,[12]; 62 g ai/ha,75%
same,pest or weed control at 125 g/ha,[12]; 125 g ai/ha,80%
same,plant injury at 31 g/ha,[13]; 31 g ai/ha,0%
same,plant injury at 62 g/ha,[13]; 62 g ai/ha,0%
same,plant injury at 125 g/ha,[13]; 125 g ai/ha,0%
same,pest or weed control at 31 g/ha,[14]; 31 g ai/ha,75%
same,pest or weed control at 62 g/ha,[14]; 62 g ai/ha,90%
same,pest or weed control at 125 g/ha,[14]; 125 g ai/ha,95%
same,pest or weed control at 16 g/ha,[15]; 16 g ai/ha,85%
same,pest or weed control at 31 g/ha,[15]; 31 g ai/ha,85%
same,pest or weed control at 62 g/ha,[15]; 62 g ai/ha,90%
same,pest or weed control at 125 g/ha,[15]; 125 g ai/ha,98%
same,pest or weed control at 16 g/ha,[16]; 16 g ai/ha,0%
same,pest or weed control at 31 g/ha,[16]; 31 g ai/ha,0%
same,pest or weed control at 62 g/ha,[16]; 62 g ai/ha,20%
same,pest or weed control at 125 g/ha,[16]; 125 g ai/ha,20%
same,pest or weed control at 31 g/ha,[17]; 31 g ai/ha,0%
same,pest or weed control at 62 g/ha,[17]; 62 g ai/ha,35%
same,pest or weed control at 125 g/ha,[17]; 125 g ai/ha,20%
same,pest or weed control at 31 g/ha,wild oat (Avena fatua); 31 g ai/ha,5%
same,pest or weed control at 62 g/ha,wild oat (Avena fatua); 62 g ai/ha,30%
same,pest or weed control at 125 g/ha,wild oat (Avena fatua); 125 g ai/ha,35%
same,plant injury at 31 g/ha,[18]; 31 g ai/ha,60%
same,plant injury at 62 g/ha,[18]; 62 g ai/ha,70%
same,plant injury at 125 g/ha,[18]; 125 g ai/ha,90%
same,pest or weed control at 16 g/ha,[19]; 16 g ai/ha,0%
same,pest or weed control at 31 g/ha,[19]; 31 g ai/ha,0%
same,pest or weed control at 62 g/ha,[19]; 62 g ai/ha,5%
same,pest or weed control at 125 g/ha,[19]; 125 g ai/ha,20%
